Data reported in PubChem BioAssay (NCI).
Values joined by “and” are separate entries in the source; they are usually repeats but may differ in a detail not shown here. Equal values may be shown once.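 Where inhibition never reached the appropriate level, the endpoint shown equals the highest concentration tested. Otherwise, values were interpolated linearly from a five-concentration, 48-hour dose response in 96-well plates. GI50 is the concentration that inhibits growth by half. TGI denotes the concentration required for complete inhibition of growth.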

What was measured:
Experiment in all cases: NCI tumour cell line growth inhibition, 48 h
[1] = system: A498 renal
[2] = system: TK-10 renal
[3] = system: NCI-H522 lung
[4] = system: OVCAR-3 ovarian
[5] = system: HCT-116 colon
[6] = system: U251 CNS
[7] = system: HCC-2998 colon
[8] = system: KM12 colon
[9] = system: A549 NSCLC
[10] = system: MALME-3M melanoma

| Structure (SMILES) | GI50 [1] | TGI [1] | GI50 [2] | TGI [2] | GI50 [3] [µM] | TGI [3] | GI50 [4] | TGI [4] | GI50 [5] | TGI [5] | GI50 [6] | TGI [6] | GI50 [7] | TGI [7] | GI50 [8] | TGI [8] | GI50 [9] | TGI [9] | GI50 [10] | TGI [10] |
| --- | --- | --- | --- | --- | --- | --- | --- | --- | --- | --- | --- | --- | --- | --- | --- | --- | --- | --- | --- | --- |
| C=C1C(=O)O[C@H]2[C@H]1CC/C(Cn1cc(-c3ccccc3C(F)(F)F)nn1)=C\CC[C@@]1(C)O[C@@H]21 | 3.86 µM | 15.9 µM | 1.71 µM | 3.2 µM | 1.38 | 3.13 µM | 1.04 µM | 2.33 µM | 1.26 µM | 2.74 µM | 1.83 µM | 3.83 µM | 1.85 µM | 3.47 µM | 5.88 µM | 19.2 µM | 7.23 µM | 21.8 µM | 1.7 µM | 3.56 µM |
| Cn1cc(-c2ccc(-c3ccc(C4=NC5(CC5)C(=O)N4C[C@@H]4CCN(C(=O)C5CC5)C4)cc3)cc2)cn1 | 2.16 µM | 23.7 µM | 24 µM | 81.2 µM | 12.3 | 40.6 µM | 11.5 µM | 28.1 µM | 11.7 µM | > 100 µM | 10.5 µM | 29 µM | 15.2 µM | 29.9 µM | 5.39 µM | 32.1 µM | 12.5 µM | 39.3 µM | 18.6 µM | 40.9 µM |
| O=C1C(=O)c2cccnc2-c2ncccc21 | 0.199 µM | 2.21 µM | 1.24 µM | 2.6 µM | 0.126 | 0.332 µM | 0.193 µM | 0.503 µM | 0.0401 µM | 0.159 µM | 0.131 µM | 0.674 µM | 1.32 µM | 2.92 µM | 0.409 µM | 1.59 µM | 1.04 µM | 2.8 µM | 0.215 µM | 0.769 µM |
| Cc1cc(N2CCOCC2)cc2[nH]c(-c3c(NC[C@@H](O)c4cccc(Cl)c4)cc[nH]c3=O)nc12 | 0.35 µM | 1.15 µM | 1.55 µM | 4.4 µM | 1.78 | 6.18 µM | 5.58 µM | 27.7 µM | 1.64 µM | 6.67 µM | 1.65 µM | 4.38 µM | 1.57 µM | 6.15 µM | 0.0161 µM | 4.46 µM | 0.903 µM | 4.31 µM | 1.68 µM | 14.8 µM |
| COc1ccc2c(c1)C(=O)c1c-2n(CCCI)c(=O)c2cc([N+](=O)[O-])ccc12 | 0.609 µM and 0.157 µM | 3.6 µM and 0.95 µM | 33.1 µM and 19.4 µM | 50 µM and > 100 µM | – | 50 µM and 98.8 µM | 1.08 µM and 2.99 µM | 19.4 µM and 20.1 µM | 0.0721 µM and 0.0453 µM | 1.02 µM and 1.94 µM | 0.138 µM and 0.047 µM | 5.64 µM and 1.27 µM | 0.63 µM and 0.797 µM | 6.41 µM and 21.9 µM | 0.939 µM and 1.77 µM | 50 µM and 46.6 µM | 0.316 µM and 0.402 µM | 50 µM and 40.9 µM | 1.36 µM and 2.85 µM | 18.4 µM and 43.3 µM |
| CCNC(=O)O[C@H]1CN[C@H](C#Cc2cc3ncnc(Nc4ccc(OCc5cccc(F)c5)c(Cl)c4)c3s2)C1 | 1.7 µM | 11.7 µM | 0.198 µM | 11.4 µM | 0.371 | 5.91 µM | 3.77 µM | 16.7 µM | 7.43 µM | > 25 µM | 9.24 µM | > 25 µM | 4.91 µM | 15.5 µM | 6.59 µM | > 23.1 µM | 5.29 µM | > 25 µM | 3.99 µM | 11.7 µM |
| CC(C)CC(NC(=O)OC(C)(C)C)C(=O)Nc1ccc(Nc2nc(F)nc(-c3c4ccccc4cn3C)n2)cc1 (centres undefined) | – | > 100 µM | – | > 100 µM | – | > 100 µM | – | 63 µM | – | > 100 µM | – | > 46.4 µM | – | 40.2 µM | – | 42.3 µM | – | > 100 µM | – | > 100 µM |
| CN(C)CC/[N+]([O-])=C(/c1ccccc1)C12CC3CC(CC(C3)C1)C2 | – | 32.6 µM | – | 30.7 µM | – | 29.2 µM | – | 27.8 µM | – | 32 µM | – | 29.7 µM | – | 37.6 µM | – | 33.3 µM | – | 32.9 µM | – | 55.2 µM |
| O=C1CCc2c(sc3[nH]c(=S)n(Cc4ccc(Cl)cc4)c(=O)c23)C1 | 1.87 µM | 7.25 µM | 0.988 µM | > 100 µM | 0.34 | 1.68 µM | 0.385 µM | > 55.6 µM | 0.366 µM | > 100 µM | 0.377 µM | 18 µM | 0.577 µM | 2.3 µM | 0.361 µM | 1.68 µM | 0.497 µM | 16.6 µM | 0.972 µM | 3.9 µM |
| Cc1cc(C)cc(NC(N)=S)c1 | – | > 100 µM | – | > 100 µM | – | > 100 µM | – | > 100 µM | – | > 100 µM | – | > 100 µM | – | > 100 µM | – | > 100 µM | – | > 100 µM | – | > 100 µM |
